Converted amounts (≈) assume the structure as drawn. Non-standard residues stand in square brackets, D forms with d. Residues, ends and D or L forms follow the SMILES beside them. Aoc = NCCCCCCCC(=O)O
Experiments:
[1] = test system: C. albicans; details: 24 h
[2] = test system: C. glabrata; details: 24 h
[3] = test system: C. parapsilosis; details: 24 h
[4] = test system: C. krusei; details: 24 h
[5] = test system: C. auris; details: 24 h
[6] = test system: C. tropicalis; details: 24 h
[7] = test system: C. dubliniensis; details: 24 h
[8] = test system: C. neoformans; details: 72 h
[9] = test system: C. gattii; details: 72 h
[10] = test system: Fusarium spp.; details: 48 h
[11] = test system: Scedosporium spp.; details: 72 h
[12] = test system: Lomentospora prolificans
[13] = in vitro; details: human, EC50 cytotoxicity in HepG2, intracellular ATP assay
[14] = test system: Candida spp.

| SMILES | MIC C. albicans [1] | MIC C. glabrata [2] | MIC C. parapsilosis [3] | MIC C. krusei [4] | MIC C. auris [5] | MIC C. tropicalis [6] | MIC C. dubliniensis [7] | MIC C. neoformans [8] | MIC C. gattii [9] | MIC Range Fusarium spp. [10] | MIC Range Scedosporium spp. [11] | MIC Range Lomentospora prolificans [12] | EC50 [13] | Activity at 24 h MIC50 against Candida spp. ([14]; 24 h) | Activity at 24 h MIC90 against Candida spp. ([14]; 24 h) | Activity at 48 h MIC50 against Candida spp. ([14]; 48 h) | Activity at 48 h MIC90 against Candida spp. ([14]; 48 h) |
| --- | --- | --- | --- | --- | --- | --- | --- | --- | --- | --- | --- | --- | --- | --- | --- | --- | --- |
| CC(=O)N[C@H](CCCNC(=N)N)C(=O)N[C@@H](CCCNC(=N)N)C(=O)N[C@H](CCCNC(=N)N)C(=O)NCCCCCCCC(=O)N[C@H](CCCNC(=N)N)C(=O)N[C@@H](CCCNC(=N)N)C(=O)N[C@H](CCCNC(=N)N)C(=O)NCCCCCCCC(=O)N[C@H](CCCNC(=N)N)C(=O)N[C@@H](CCCNC(=N)N)C(=O)N[C@H](CCCNC(=N)N)C(=O)N[C@@H](CCCNC(=N)N)C(=O)NCCCCCCCC(=O)N[C@H](CCCNC(=N)N)C(=O)N[C@@H](CCCNC(=N)N)C(=O)N[C@H](CCCNC(=N)N)C(=O)N[C@@H](CCCNC(=N)N)C(N)=O [SEQ ID NO: 31, CH3CONH-rRr-(Aoa)-rRr-(Aoa)-rRrR-(Aoa)-rRrR-NH2] (Ac-[dR]R[dR][Aoc][dR]R[dR][Aoc][dR]R[dR]R[Aoc][dR]R[dR]R-NH2) | 1 µg/mL (≈ 0.375 µM) | 1 µg/mL (≈ 0.375 µM) | 0.25 µg/mL (≈ 0.0937 µM) | 0.5 µg/mL (≈ 0.187 µM) | 0.5 µg/mL (≈ 0.187 µM) | 0.5 µg/mL (≈ 0.187 µM) | 1 µg/mL (≈ 0.375 µM) | 0.5 µg/mL (≈ 0.187 µM) | 0.5 µg/mL (≈ 0.187 µM) | 0.25 to 4 µg/mL | 0.5 to 2 µg/mL | 2 µg/mL (≈ 0.749 µM) |  |  |  |  |  |
| CC(=O)N[C@H](CCCNC(=N)N)C(=O)N[C@@H](CCCNC(=N)N)C(=O)N[C@H](CCCNC(=N)N)C(=O)N1CCC[C@H]1C(=O)N[C@H](CCCNC(=N)N)C(=O)N[C@@H](CCCNC(=N)N)C(=O)N[C@H](CCCNC(=N)N)C(=O)N1CCC[C@H]1C(=O)N[C@H](CCCNC(=N)N)C(=O)N[C@@H](CCCNC(=N)N)C(=O)N[C@H](CCCNC(=N)N)C(=O)N[C@@H](CCCNC(=N)N)C(=O)N1CCC[C@H]1C(=O)N[C@H](CCCNC(=N)N)C(=O)N[C@@H](CCCNC(=N)N)C(=O)N[C@H](CCCNC(=N)N)C(=O)N[C@@H](CCCNC(=N)N)C(N)=O [SEQ ID NO: 55, CH3CONH-rRr-P-rRr-P-rRrR-P-rRrR-NH2] (Ac-[dR]R[dR]P[dR]R[dR]P[dR]R[dR]RP[dR]R[dR]R-NH2) | 1 µg/mL (≈ 0.394 µM) | 0.5 µg/mL (≈ 0.197 µM) | 0.25 µg/mL (≈ 0.0985 µM) | 2 µg/mL (≈ 0.788 µM) | 1 µg/mL (≈ 0.394 µM) | 0.5 µg/mL (≈ 0.197 µM) | 0.5 µg/mL (≈ 0.197 µM) | 0.5 µg/mL (≈ 0.197 µM) | 1 µg/mL (≈ 0.394 µM) | 0.25 to 1 µg/mL | 0.5 to 1 µg/mL | 1 µg/mL (≈ 0.394 µM) |  |  |  |  |  |
| N=C(N)NCCC[C@@H](N)C(=O)N[C@@H](CCCNC(=N)N)C(=O)N[C@H](CCCNC(=N)N)C(=O)N[C@@H](CCCNC(=N)N)C(=O)N1CCC[C@H]1C(=O)N[C@H](CCCNC(=N)N)C(=O)N[C@@H](CCCNC(=N)N)C(=O)N[C@H](CCCNC(=N)N)C(=O)N[C@@H](CCCNC(=N)N)C(=O)N1CCC[C@H]1C(=O)N[C@H](CCCNC(=N)N)C(=O)N[C@@H](CCCNC(=N)N)C(=O)N[C@H](CCCNC(=N)N)C(=O)N1CCC[C@H]1C(=O)N[C@H](CCCNC(=N)N)C(=O)N[C@@H](CCCNC(=N)N)C(=O)N[C@H](CCCNC(=N)N)C(N)=O [SEQ ID NO: 60, rRrR-P-rRrR-P-rRr-P-rRr-NH2] (H-[dR]R[dR]RP[dR]R[dR]RP[dR]R[dR]P[dR]R[dR]-NH2) | 0.25 µg/mL (≈ 0.1 µM) | 0.25 µg/mL (≈ 0.1 µM) | 0.25 µg/mL (≈ 0.1 µM) | 0.5 µg/mL (≈ 0.2 µM) | 0.5 µg/mL (≈ 0.2 µM) | 0.25 µg/mL (≈ 0.1 µM) | 0.25 µg/mL (≈ 0.1 µM) |  |  |  |  |  | > 300 µg/mL |  |  |  |  |
| N=C(N)NCCC[C@@H](N)C(=O)N[C@@H](CCCNC(=N)N)C(=O)N[C@H](CCCNC(=N)N)C(=O)N[C@@H](CCCNC(=N)N)C(=O)N[C@H](CCCNC(=N)N)C(=O)N[C@@H](CCCNC(=N)N)C(=O)N[C@H](CCCNC(=N)N)C(=O)N1CCC[C@H]1C(=O)N[C@H](CCCNC(=N)N)C(=O)N[C@@H](CCCNC(=N)N)C(=O)N[C@H](CCCNC(=N)N)C(=O)N[C@@H](CCCNC(=N)N)C(=O)N[C@H](CCCNC(=N)N)C(=O)N[C@@H](CCCNC(=N)N)C(=O)N[C@H](CCCNC(=N)N)C(N)=O [SEQ ID NO: 62, rRrRrRr-P-rRrRrRr-NH2] (H-[dR]R[dR]R[dR]R[dR]P[dR]R[dR]R[dR]R[dR]-NH2) | 0.25 µg/mL (≈ 0.109 µM) | 0.5 µg/mL (≈ 0.217 µM) | 0.25 µg/mL (≈ 0.109 µM) | 0.5 µg/mL (≈ 0.217 µM) | 2 µg/mL (≈ 0.869 µM) | 0.25 µg/mL (≈ 0.109 µM) | 0.25 µg/mL (≈ 0.109 µM) |  |  |  |  |  | > 300 µg/mL | 0.5 µg/mL | 4 µg/mL | 0.5 µg/mL | 32 µg/mL |
